Laboratory results from US12630523B2, “Isoquinoline derivatives for use as antiviral and antitumour agents” (priority 2021, dated 2026).

Columns and labels:
HPV16 E7 protein = target: T1, HPV16 E7 protein (Human papillomavirus type 16, UniProt P03129); format: cell-based; details: CaSki cells; adjusted degradation, CHX steady state set to 100% degradation
T1 construct: endogenous in cells; host or cells: CaSki cells (HPV16-positive cervical carcinoma)
Protocol: For intracellular antibody labeling, 0.5×10^6 cells are washed once with 1 ml ice-cold PBS. Cells are centrifuged at 350×g for 5 minutes at 4° C. and then fixed in 1% paraformaldehyde (1 ml/10^6 cells) for 20 minutes at 4° C. Cells are washed with 1 ml ice-cold PBS and centrifuged at 350×g for 5 minutes at 4° C. To permeabilize cells, 100% ice-cold methanol (1 ml/10^6 cells) is added to the cells and incubated for 20 minutes at 4° C. followed by centrifugation at 350×g for 5 minutes at 4° C. Cells are washed with 1 ml ice-cold PBS, centrifuged at 350×g for 5 minutes at 4° C. and resuspended in 0.1% saponin+2% FBS in PBS (ice-cold). Cells are left for 20-30 minutes at room temperature to reduce the background signal and then centrifuged at 350×g for 5 minutes at 4° C. The primary antibody (mAb_HPV16E7-1 (VS13004); concentration 1 μg/μl) is diluted in 0.1% saponin+2% FBS (dilution 0.25 μg/50 μl of incubation buffer per 1×10^6 cells (5 ng/μl)). Cells are incubated with primary antibody for 30 minutes at room temperature, washed with 0.1% saponin+2% FBS and centrifuged at 350×g for 5 minutes at 4° C. The secondary antibody (FITC conjugated goat anti-mouse IgG1-IgM, BD, cat. #555988) is diluted in 0.1% saponin+2% FBS (dilution 1:50). Cells are incubated with secondary antibody for 30 minutes at room temperature, washed once with 0.1% saponin+2% FBS, once with PBS and centrifuged at 350×g for 5 minutes at 4° C.
Cells are resuspended in 700 μl PBS prior to CF analysis with a Beckman Coulter FC 500 MPL, (excitation laser 488 nm). Data analysis is done using the Beckman Coulter software packages MXP for acquisition and CXP for data analysis which includes MFI calculation. Detection of HPV-E7 protein expression is based on morphology back-gating of FL1 histogram (logarithmic scale) with gating for dot plot FS (Forward Scatter) log/SS (Sideward Scatter) log and gating for histograms SS log.
In order to define the level of E7 protein expression and to study the extent of E7 protein steady state level reduction in E7 expressing cells in the presence of various compounds, FC analysis is implemented using the intracellular antibody labeling procedure for monoclonal antibodies to HPV E7. E7 signal intensities are analyzed from the obtained FL1 histograms at logarithmic scale. The FL1 single histogram graph represents the variation in the mean fluorescence intensity (MFI) channel for cells treated with selected compounds compared to cells not incubated with primary antibodies but incubated with secondary, which allows to test for auto-fluorescence, and non-compound treated cells as controls. Non-primary antibody-stained cells are used to set the acquisition parameters to zero. Decrease of the mean fluorescence intensity channel corresponds to a decrease in the expression of HPV16 E7 protein. Degradation of E7 in cells is calculated as percent (%) reduction in MFI(x-Me) using the following formulas: % Drel=(T−C)/T*100; i) relative degradation: % Dad=(T−C)/(T−CHX)*100; ii) adjusted degradation: • Drel=relative degradation, • Dad=adjusted degradation assuming CHX % Drel=100; • T=MFI of non-treated cells; • C=MFI of compound treated cells; • CH=MFI of cycloheximide (CHX) treated cells;
For comparison within one experiment i) the % relative degradation (Drel) is sufficient, whereas for comparison between two or more experiments ii) the adjusted degradation (Dad) is used and CHX steady state is set to a 100% degradation parameter.
1×10^6 freshly seeded CaSki cells (ATCC CRL-7915), are grown in 10 cm diameter cell culture dishes in RPMI1640, 10% FCS medium at 37° C. 5% CO2 overnight and then incubated in the presence of 10 μM Cycloheximide (CHX) 10 μM OC246 or with vehicle alone for four hours at 37° C. 5% CO2. Following this E7 protein is assessed by cytofluorimetric analysis using intracellular HPV16 E7 antibody labeling. […]

CaSki cells = test: Cell cycle analysis using Propidium-Iodide staining (flow cytometry); format: cell-based, human; details: 48 hour incubation; for A*/5 μM (apoptosis as measured from total SUB G1 content) / A*/10 μM (apoptosis as measured from total SUB G1 content): no treatment 15.0; for G2/5 μM / G1/5 μM / G2/10 μM / G1/10 μM: cell cycle distribution; for G2/5 μM / G2/10 μM: no treatment 15.6; for G1/5 μM / G1/10 μM: no treatment 53.3
Protocol: Propidium-Iodide (PI) DNA staining is performed to facilitate cell cycle analysis. For PI-DNA staining, fixed cells and eventually antibody-stained cells are resuspended in 450 μl of PBS (per 10^6 cells) and incubated with 100 μg/ml RNase (stock 1 mg/ml, in PBS) for 10 minutes at 37° C. Cells are then incubated with 5 μg/106 cells of PI (stock 1 mg/ml in PBS) for 10 minutes at room temperature. Samples are stored at 4° C. until CF analysis.
CaSki cells were incubated with various compounds and cell cycle distribution of the cells was assessed using Propidium-Iodide staining.
In order to analyze the cytostatic versus the cytotoxic effect of OC compounds, cell cycle profiles were analyzed in vitro after 48 hour incubations using Flow Cytometry as a read out. For this a cell cycle analysis from selected OC E7 degrader compounds was conducted in CaSki cells. Using 6 well plates, 1.5×10^5 cells were seeded for each well and grown over night at 37° C. 5% CO2. For analysis of the cell cycle behavior, cells were analyzed in the presence of propidium Iodide (PI^−) by flow cytometry (FC). Briefly, cells were detached by trypsin digestion, all supernatants were included in the analysis, and fixed with 70% ice cold ethanol and stored at 4° C. until FC analysis using PI^− staining (1 mg/ml). At least 7000 events were acquired for each sample.

[1] = test system: CaSki (ATCC CRM-CRL-1550); test: Monolayer assay using Sulphorhodamine B (SRB) staining, CaSki; format: cell-based; details: Homo sapiens, Ca-Ski, read-out: EC50 mean [nM]
Protocol: Various cell culture cells grown as monolayers are harvested from exponential growing cultures after treatment with various OC compounds at different concentrations. For this depending on the cell line, 10.000 to 30.000 cells were plated in 96-well flat-bottom microtiter plates. After a 24 h recovery period to allow cells to resume exponential growth, supernatants are discarded and 100 μl of culture medium (eight control wells/plate) or culture medium with the test compound are added by a liquid handling robotic system (Microlab® Starlet, Hamilton) and treatment continued for 72 hrs. Compounds are applied at 9 concentrations and eight wells/concentration). At least three independent experiments are performed. For SRB staining, cells are fixed with SRB01 (Tab. 5) for 1 h at 4° C. (final concentration of TCA=10%) washed with a plate washer (Hydroflex, Tecan©) for five times with H2O; and stained with 100 μl of SRB02 at room temperature for 10 min following 4 washes in SRB03 and finally 100 μl of developer solution SRB04 for 5 minutes with shaking. Optical density is assessed using a plate-reader (Sunrise, Tecan©) at 540 nm.
Concentrations required for half maximal response of the compound for cell growth inhibition (EC50) is calculated by non-linear regression (log[conc. of inhibitor] versus response (% T/C)) using the analysis software GraphPad Prism®, Prism 5 for windows, version 5.01 (GraphPad Software Inc., CA).

[2] = test system: SARS-CoV-2 isolate BetaCov/Belgium/GHB-03021/2020; test: microbe, parasite or virus in culture; format: cell-based; details: 1.25 μM (non-toxic compound concentration), n4; for inhibition at 1.25 µM: Severe acute respiratory syndrome coronavirus 2
[3] = test system: human cervical carcinoma (CaSki) xenograft; test: CaSki high risk HPV16 human cervical carcinoma xenograft model; format: in vivo, nude mice
Protocol: The aim of this study was to assess the in vivo efficacy of OC246 and OC974 on a human cervical carcinoma (CaSki) xenograft model in nude mice. OC246 and OC974 were administered oral once daily for four times with three days off, for three cycles at 2 mg/kg/dose. Cisplatin (CDDP) was used as a reference compound with three weekly intravenous (q7dx3) administrations of 6 mg/kg.

[4] = test system: cell signaling molecules (4E-BP1, p70 S6 kinase, Akt, PTPN14, p53, PD-L1); test: Western blot of cell signaling molecules in CaSki cells; details: CaSki; for Phosphorylation of 4E-BP1 on Ser65 and the p70S6 kinase on Thr389: 6 h, order 10 μM VSP035, Torin 1, Torin 2, rapamycin, 5 μM VSP035, CGP 57380; for phosphorylation of AKT on Ser473: 6 h treatment

T1 sequence (P03129 whole entry): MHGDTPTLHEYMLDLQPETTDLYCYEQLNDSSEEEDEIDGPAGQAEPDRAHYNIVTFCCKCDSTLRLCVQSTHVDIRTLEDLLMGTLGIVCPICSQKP

| SMILES | % Dad (HPV16 E7 protein) | A*/5 μM (apoptosis as measured from total SUB G1 content) (CaSki cells) | A*/10 μM (apoptosis as measured from total SUB G1 content) (CaSki cells) | G2/5 μM (CaSki cells) | G1/5 μM (CaSki cells) | G2/10 μM (CaSki cells) | G1/10 μM (CaSki cells) | EC50 [1] | inhibition at 1.25 µM [2] | % TGI (Day 44): percentage tumor growth inhibition with respect to controls ([3]; OC246/OC974 os 2 mg/kg/day, 4 × week, 3 cycles, CDDP i.v. q7d × 3, 6 mg/kg) | Δ% on Day 44 ([3]; OC246/OC974 os 2 mg/kg/day, CDDP i.v. 6 mg/kg, control 100) | Tumor Volume Day 44 (mm^3 ± SD) ([3]; OC246/OC974 os daily 4 × week, 3 cycles, 2 mg/kg/day, CDDP i.v. q7d × 3, 6 mg/kg, control 1099 ± 503) | Δ% Body Weight ([3]; between first day of treatment (day 20) and Day 44, OC246/OC974 os 2 mg/kg/day, CDDP i.v. 6 mg/kg, control +4.9) | % Inhibition [2] | Phosphorylation of 4E-BP1 on Ser65 and the p70S6 kinase on Thr389 [4] | phosphorylation of AKT on Ser473 [4] |
| --- | --- | --- | --- | --- | --- | --- | --- | --- | --- | --- | --- | --- | --- | --- | --- | --- |
| Cc1ccc(CN2C(=O)c3ccccc3[C@@H](C(=O)Nc3cccc(N4CCN(C)CC4)c3)[C@@H]2c2ccc(C(F)(F)F)nc2)cc1 (relative stereo) [OC968] | 37% | 11.9% | 11.6% | 18.0% | 52.7% | 19.7% | 48.0% | 10600 nM | 2.09% |  |  |  |  |  |  |  |
| CN1CCN(c2cccc(NC(=O)[C@@H]3c4ccccc4C(=O)N(Cc4cccnc4)[C@H]3c3ccc(C(F)(F)F)cc3)c2)CC1 (relative stereo) [OC976] | 54% | 11.4% | 12.8% | 9.3% | 58.8% | 16.9% | 53.2% | 4720 nM | 27.1% |  |  |  |  |  |  |  |
| [NH2][Pt]([NH2])([Cl])[Cl] [CDDP, Cisplatin, reference compound] |  |  |  |  |  |  |  |  |  | 79.2% | 14% | 242 ± 182 mm^3 | −10.2% |  |  |  |
| Cc1ccc(CN2C(=O)c3ccccc3[C@@H](C(=O)Nc3cccc(N4CCOCC4)c3)[C@@H]2c2ccc(C(F)(F)F)cc2)cc1 (relative stereo) [OC973] | 20% | 11.1% | 13.0% | 17.6% | 52.1% | 11.5% | 52.6% | 6720 nM | 0.95% |  |  |  |  |  |  |  |
| Nc1ccc(-c2ccc3ncc4ccc(=O)n(-c5cccc(C(F)(F)F)c5)c4c3c2)cn1 [Torin2, reference compound] |  |  |  |  |  |  |  |  |  |  |  |  |  | 1.46% | inhibited or strongly reduced | inhibited |
| CN1CCN(c2cccc(NC(=O)[C@@H]3c4ccccc4C(=O)N(Cc4ccncc4)[C@H]3c3ccc(C(F)(F)F)cc3)c2)CC1 (relative stereo) [OC975] | 67% | 13.9% | 11.8% | 10.4% | 49.9% | 10.5% | 51.4% | 4340 nM | 0.17% |  |  |  |  |  |  |  |
| Cc1ccc(CN2C(=O)c3ccccc3[C@@H](C(=O)Nc3ccc(N4CCN(C)CC4)cc3)[C@@H]2c2ccc(C(F)(F)F)cc2)cc1 (relative stereo) [OC972] | 32% | 12.8% | 13.5% | 16.9% | 53.2% | 15.9% | 48.4% | 67700 nM | 5.37% |  |  |  |  |  |  |  |
| CCC(=O)N1CCN(c2ccc(-n3c(=O)ccc4cnc5ccc(-c6cnc7ccccc7c6)cc5c43)cc2C(F)(F)F)CC1 [Torin 1, reference compound] |  |  |  |  |  |  |  |  |  |  |  |  |  | 7.00% | inhibited or strongly reduced | inhibited |
